Data as given in ChEMBL document CHEMBL1201862, “PubChem BioAssay data set” (2004).
The source made the active and inactive calls.

How the values were obtained:
[1] = biological target: Dual specificity protein kinase CLK1 (Homo sapiens, UniProt P49759); experiment: CLK1 kinase inhibitors, off-target check, dose response, selectivity assay for Dyrk1A inhibitor project, biochemical, cherry-picked samples (AID 588811)
[2] = test system: INS1; experiment: protection from cytokine-induced mitochondrial depolarization, dose response, cell-based, INS-1E, JC-1 fluorescence ratio, dry powder (AID 488931); format: functional; settings: Rattus norvegicus
[3] = biological target: Sphingosine 1-phosphate receptor 2 (Homo sapiens, UniProt O95136); experiment: Late-stage fluorescence-based dose-response cell-based counterscreen assay to identify agonists of the Sphingosine 1-Phosphate Receptor 3 (S1P3): Sphingosine 1-Phosphate Receptor 2 (S1P2) agonist assay.; format: functional
[4] = biological target: Sphingosine 1-phosphate receptor 4 (Homo sapiens, UniProt O95977); experiment: Late-stage fluorescence-based dose-response cell-based counterscreen assay to identify agonists of the Sphingosine 1-Phosphate Receptor 3 (S1P3): Sphingosine 1-Phosphate Receptor 4 (S1P4) agonist assay.; format: functional
[5] = biological target: Dual specificity tyrosine-phosphorylation-regulated kinase 1B (Homo sapiens, UniProt Q9Y463); experiment: Navigating the Kinome. Panel member name: DYRK1B; format: functional
[6] = biological target: Dual specificity protein kinase CLK4 (Homo sapiens, UniProt Q9HAZ1); format: functional
[7] = biological target: Mitogen-activated protein kinase 8 (Homo sapiens, UniProt P45983); format: functional;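 further: value comes from one member of a kinome-wide kinase profiling panel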
[8] = biological target: Dual specificity tyrosine-phosphorylation-regulated kinase 1A (Homo sapiens, UniProt Q13627); format: functional;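 further: measured against DYRK1A as one member of a broad kinome profiling panel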
[9] = biological target: T1, SUMO-activating enzyme (Homo sapiens, UniProt Q9UBT2); experiment: SUMOylation inhibitor hit validation, confirmation, SUMOylation inhibitor project, biochemical, AlphaScreen (AID 2018); format: functional
[10] = test system: Streptococcus; experiment: Group A Streptococcus viability loss, dose response, counter-screen for streptokinase expression inhibitor project, luminescence, BacTiterGlo (AID 1915); format: functional, organism-based;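 further: potency for reduction of bacterial viability or growth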
[11] = test system: Streptococcus sp. 'group A'; experiment: growth inhibition of control SK(-) GAS strain, dose response, counter-screen for streptokinase expression inhibitor project, luminescence, kanamycin, BacTiterGlo, confirmation (AID 1900); format: functional, organism-based
[12] = biological target: 26S proteasome non-ATPase regulatory subunit 14 (Homo sapiens, UniProt O00487); experiment: inhibition of proteasome subunit RPN11 – biochemical, fluorescence polarization, uHTS hits, confirmation (AID 602368); format: functional
[13] = biological target: Prothrombin (Bos taurus, UniProt P00735); experiment: thrombin inhibition, dose response, biochemical, fluorescence polarization, uHTS hits (AID 602369); format: functional
[14] = biological target: T2, Small ubiquitin-related modifier 1 (Homo sapiens, UniProt P63165); experiment: inhibitors of SUMO1 peptide binding, dose response, biochemical, fluorescence polarization, uHTS hits (AID 624382); format: functional; settings: read-out: IC50_Mean
[15] = biological target: T1, SUMO-activating enzyme; experiment: inhibitors of in vitro SUMOylation cascade, primary screen, biochemical, HTRF, uHTS (AID 2006); format: protein-complex assay
[16] = biological target: T3, Streptokinase A (Streptococcus pyogenes serotype M1, UniProt P10520); experiment: S. pyogenes streptokinase expression inhibitors, potency, dose response, plasminogen activation absorbance, OD405 (AID 1914); format: functional, Streptococcus pyogenes M1 GAS;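 further: secreted streptokinase activity via plasminogen activation per viability signal from cell pellet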
T3 sequence (P10520 whole entry): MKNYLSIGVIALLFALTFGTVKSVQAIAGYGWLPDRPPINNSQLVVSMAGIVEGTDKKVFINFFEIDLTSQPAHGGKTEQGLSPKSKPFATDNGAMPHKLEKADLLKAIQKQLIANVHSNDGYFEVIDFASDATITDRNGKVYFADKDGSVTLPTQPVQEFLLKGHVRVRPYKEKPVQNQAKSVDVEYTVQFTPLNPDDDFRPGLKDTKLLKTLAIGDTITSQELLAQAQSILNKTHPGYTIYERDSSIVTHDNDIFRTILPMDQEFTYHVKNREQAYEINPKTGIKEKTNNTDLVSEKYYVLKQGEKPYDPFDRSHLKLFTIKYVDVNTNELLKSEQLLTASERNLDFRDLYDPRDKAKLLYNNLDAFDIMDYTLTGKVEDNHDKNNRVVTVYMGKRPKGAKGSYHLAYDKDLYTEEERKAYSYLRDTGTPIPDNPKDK

[17] = biological target: T2, Small ubiquitin-related modifier 1; experiment: inhibitors of SUMO1 partner interactions, dose response, biochemical, FRET (AID 624383); format: functional; settings: read-out: IC50_Mean
[18] = biological target: 72 kDa type IV collagenase (Homo sapiens, UniProt P08253); experiment: Dose Response validation of uHTS RPN11 inhibitor hits using a MMP-2 Fluorescence assay.; format: functional
[19] = insulin promoter down-regulators in MIN6 cells, imaging, high-content screening, mouse beta cells (AID 1628); format: functional
[20] = inhibitors of firefly luciferase expression or activity, dose response, H4 neuroglioma cells, luminescence (AID 1990); format: functional, cell-based
[21] = cells; format: functional, cell-based
[22] = cells; format: functional, cell-based; remark: listed apart in the source
[23] = cytotoxicity in MIN6 insulinoma cells, dose response, cytotoxicity control, cell-based, mouse insulinoma (AID 2122); format: functional;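 further: confirmatory high-throughput counterscreen run to flag cytotoxic compounds; mouse MIN-6 beta cells carrying an insulin promoter eGFP reporter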
[24] = test system: HEK293; experiment: inhibitors of LMP1-driven NF-kB reporter, dose response, cell-based, HEK293, luciferase, cherry-pick (AID 588343); format: functional; settings: Homo sapiens
[25] = inhibitors of SNCA 5'UTR-driven reporter translation, confirmation, H4 neuroglioma cells, luminescence (AID 1988); format: functional, cell-based
[26] = Luminescence Cell-Based Dose Retest to Confirm Inhibitors of Cancer Stem Cells. [Related pubchem assays (depositor defined):AID2717, AID2721]; format: functional; settings: Homo sapiens
[27] = test system: INS1; experiment: beta cell apoptosis inhibitors, cytokine rescue, dose response, luminescence, retest (AID 449756); format: functional, cell-based; settings: Rattus norvegicus;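 further: cell death triggered by IL-1 beta plus TNF-alpha plus IFN-gamma mixture; protective hits raise ATP signal compared with cytokine alone wells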
[28] = biological target: Latent membrane protein 1 (Human herpesvirus 4 (strain B95-8), UniProt P03230); experiment: TES1-eGFP NF-kB reporter inhibition versus Tet-On dsRED, dose response, selectivity assay for LMP1 NF-kB inhibitor project, imaging, HEK293T, dual-color eGFP/dsRED, cherry-picks (AID 588398); format: functional, cell-based
[29] = Luminescence Cell-Based Dose Response HTS to Identify Inhibitors of 5'UTR Stem-Loop Driven Prion Protein mRNA Translation in H4 Neuroglioblastoma Cells. [Related pubchem assays: 1827 (Project Summary), 1813 (Primary HTS)]; format: functional
[30] = biological target: Aurora kinase A (Homo sapiens, UniProt O14965); format: functional;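 further: value from the Navigating the Kinome kinase panel profiling, panel entry STK6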
[31] = biological target: Cyclin-dependent kinase 19 (Homo sapiens, UniProt Q9BWU1); experiment: Navigating the Kinome. Panel member name: CDC2L6; format: functional
[32] = biological target: Aurora kinase B (Homo sapiens, UniProt Q96GD4); format: functional
[33] = biological target: Serine/threonine-protein kinase PAK 1 (Homo sapiens, UniProt Q13153); format: functional
[34] = biological target: Interleukin-1 receptor-associated kinase 4 (Homo sapiens, UniProt Q9NWZ3); format: functional
[35] = biological target: SRSF protein kinase 1 (Homo sapiens, UniProt Q96SB4); format: functional;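 further: measured as one member of a kinome-wide kinase profiling panel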
Sequence of SRSF protein kinase 1 (Q96SB4 whole entry): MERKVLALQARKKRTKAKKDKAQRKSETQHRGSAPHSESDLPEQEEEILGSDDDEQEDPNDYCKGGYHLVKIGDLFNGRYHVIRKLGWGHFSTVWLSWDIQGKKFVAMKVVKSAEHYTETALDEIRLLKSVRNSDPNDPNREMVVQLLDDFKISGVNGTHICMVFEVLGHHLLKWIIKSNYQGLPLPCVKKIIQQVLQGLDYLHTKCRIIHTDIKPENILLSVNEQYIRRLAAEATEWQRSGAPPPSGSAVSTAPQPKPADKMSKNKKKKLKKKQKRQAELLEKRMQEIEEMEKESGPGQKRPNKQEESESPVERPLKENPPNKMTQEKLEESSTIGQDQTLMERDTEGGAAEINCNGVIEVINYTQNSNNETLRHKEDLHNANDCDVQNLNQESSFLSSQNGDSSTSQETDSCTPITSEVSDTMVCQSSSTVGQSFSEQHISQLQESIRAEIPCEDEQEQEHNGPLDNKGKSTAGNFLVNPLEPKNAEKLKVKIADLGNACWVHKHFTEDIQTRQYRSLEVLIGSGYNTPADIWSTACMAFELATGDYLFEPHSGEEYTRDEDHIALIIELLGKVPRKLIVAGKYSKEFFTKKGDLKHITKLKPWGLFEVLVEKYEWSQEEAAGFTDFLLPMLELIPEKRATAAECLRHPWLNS

T1 sequence (Q9UBE0 whole entry): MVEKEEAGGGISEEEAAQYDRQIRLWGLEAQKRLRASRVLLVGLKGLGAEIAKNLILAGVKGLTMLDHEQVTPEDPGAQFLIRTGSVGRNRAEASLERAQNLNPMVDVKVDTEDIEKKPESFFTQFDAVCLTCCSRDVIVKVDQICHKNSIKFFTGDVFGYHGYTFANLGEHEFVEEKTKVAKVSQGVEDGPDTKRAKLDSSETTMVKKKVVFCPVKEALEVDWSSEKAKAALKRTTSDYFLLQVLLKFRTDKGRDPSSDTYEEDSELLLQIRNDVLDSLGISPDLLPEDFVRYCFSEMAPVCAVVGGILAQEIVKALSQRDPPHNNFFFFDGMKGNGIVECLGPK
T1 sequence (Q9UBT2 whole entry): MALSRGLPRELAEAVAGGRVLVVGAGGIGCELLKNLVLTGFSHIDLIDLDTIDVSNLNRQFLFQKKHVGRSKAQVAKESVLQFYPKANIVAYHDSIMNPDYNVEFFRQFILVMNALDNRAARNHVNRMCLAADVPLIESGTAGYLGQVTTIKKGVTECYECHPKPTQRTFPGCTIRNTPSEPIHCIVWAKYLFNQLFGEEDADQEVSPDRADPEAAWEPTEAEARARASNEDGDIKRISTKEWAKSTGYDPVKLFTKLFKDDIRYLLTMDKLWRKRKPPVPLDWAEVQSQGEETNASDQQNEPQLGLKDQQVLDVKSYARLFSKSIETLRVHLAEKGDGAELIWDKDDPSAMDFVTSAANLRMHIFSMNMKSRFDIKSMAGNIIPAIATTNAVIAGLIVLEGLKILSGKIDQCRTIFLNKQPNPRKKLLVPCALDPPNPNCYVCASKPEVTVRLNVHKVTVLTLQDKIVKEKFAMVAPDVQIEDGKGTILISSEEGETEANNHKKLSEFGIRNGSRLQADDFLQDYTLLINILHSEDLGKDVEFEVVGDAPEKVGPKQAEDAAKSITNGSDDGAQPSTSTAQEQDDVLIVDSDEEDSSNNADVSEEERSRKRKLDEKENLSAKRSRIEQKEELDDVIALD
T2 sequence (P63165 whole entry): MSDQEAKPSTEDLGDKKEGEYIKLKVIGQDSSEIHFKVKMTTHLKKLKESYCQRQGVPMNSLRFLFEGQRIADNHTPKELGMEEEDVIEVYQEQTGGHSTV
Sequence of Mitogen-activated protein kinase 8 (P45983 whole entry): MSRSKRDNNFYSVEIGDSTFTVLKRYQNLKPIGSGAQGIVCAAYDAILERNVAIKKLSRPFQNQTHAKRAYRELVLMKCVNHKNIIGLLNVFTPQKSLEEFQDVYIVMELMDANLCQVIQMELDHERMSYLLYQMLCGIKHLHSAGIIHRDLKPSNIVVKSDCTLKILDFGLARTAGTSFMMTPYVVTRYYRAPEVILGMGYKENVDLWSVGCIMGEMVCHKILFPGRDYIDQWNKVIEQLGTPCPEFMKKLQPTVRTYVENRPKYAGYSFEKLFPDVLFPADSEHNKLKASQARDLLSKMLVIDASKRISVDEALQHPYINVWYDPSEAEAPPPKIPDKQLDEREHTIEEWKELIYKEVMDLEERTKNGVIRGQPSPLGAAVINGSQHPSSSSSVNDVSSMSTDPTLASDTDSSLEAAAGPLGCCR
Sequence of 72 kDa type IV collagenase (P08253 whole entry): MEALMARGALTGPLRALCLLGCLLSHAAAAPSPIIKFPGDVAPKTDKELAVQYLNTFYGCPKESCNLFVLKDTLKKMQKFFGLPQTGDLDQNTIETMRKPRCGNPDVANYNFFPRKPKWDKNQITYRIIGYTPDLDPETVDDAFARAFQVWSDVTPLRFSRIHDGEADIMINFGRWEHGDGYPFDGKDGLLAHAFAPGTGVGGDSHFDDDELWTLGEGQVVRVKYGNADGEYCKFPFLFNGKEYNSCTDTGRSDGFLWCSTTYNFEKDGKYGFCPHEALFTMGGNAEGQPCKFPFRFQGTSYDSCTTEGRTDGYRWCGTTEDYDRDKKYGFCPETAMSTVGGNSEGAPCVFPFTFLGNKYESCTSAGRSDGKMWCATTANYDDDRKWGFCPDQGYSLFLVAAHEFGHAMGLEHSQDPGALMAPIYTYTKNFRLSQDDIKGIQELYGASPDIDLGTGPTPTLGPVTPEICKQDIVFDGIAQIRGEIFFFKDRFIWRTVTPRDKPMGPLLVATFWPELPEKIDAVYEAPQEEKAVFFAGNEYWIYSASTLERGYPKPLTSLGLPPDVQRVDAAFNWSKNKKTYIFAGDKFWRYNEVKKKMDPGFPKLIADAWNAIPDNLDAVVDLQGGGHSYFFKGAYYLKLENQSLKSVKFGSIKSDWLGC
Sequence of Serine/threonine-protein kinase PAK 1 (Q13153 whole entry): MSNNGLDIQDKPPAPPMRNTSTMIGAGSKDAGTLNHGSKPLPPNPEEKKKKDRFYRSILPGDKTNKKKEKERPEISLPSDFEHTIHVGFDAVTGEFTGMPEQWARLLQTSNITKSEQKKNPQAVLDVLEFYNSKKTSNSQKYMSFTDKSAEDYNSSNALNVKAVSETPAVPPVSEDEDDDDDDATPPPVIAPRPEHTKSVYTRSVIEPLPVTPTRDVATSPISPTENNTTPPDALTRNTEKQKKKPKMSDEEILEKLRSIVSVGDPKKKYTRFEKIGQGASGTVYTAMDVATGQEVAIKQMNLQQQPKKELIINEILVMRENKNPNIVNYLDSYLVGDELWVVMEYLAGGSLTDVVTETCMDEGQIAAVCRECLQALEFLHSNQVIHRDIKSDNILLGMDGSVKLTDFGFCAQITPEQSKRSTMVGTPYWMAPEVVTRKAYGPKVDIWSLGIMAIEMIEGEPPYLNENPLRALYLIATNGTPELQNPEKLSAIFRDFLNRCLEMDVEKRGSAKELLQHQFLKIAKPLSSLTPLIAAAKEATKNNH
Sequence of Dual specificity tyrosine-phosphorylation-regulated kinase 1B (Q9Y463 whole entry): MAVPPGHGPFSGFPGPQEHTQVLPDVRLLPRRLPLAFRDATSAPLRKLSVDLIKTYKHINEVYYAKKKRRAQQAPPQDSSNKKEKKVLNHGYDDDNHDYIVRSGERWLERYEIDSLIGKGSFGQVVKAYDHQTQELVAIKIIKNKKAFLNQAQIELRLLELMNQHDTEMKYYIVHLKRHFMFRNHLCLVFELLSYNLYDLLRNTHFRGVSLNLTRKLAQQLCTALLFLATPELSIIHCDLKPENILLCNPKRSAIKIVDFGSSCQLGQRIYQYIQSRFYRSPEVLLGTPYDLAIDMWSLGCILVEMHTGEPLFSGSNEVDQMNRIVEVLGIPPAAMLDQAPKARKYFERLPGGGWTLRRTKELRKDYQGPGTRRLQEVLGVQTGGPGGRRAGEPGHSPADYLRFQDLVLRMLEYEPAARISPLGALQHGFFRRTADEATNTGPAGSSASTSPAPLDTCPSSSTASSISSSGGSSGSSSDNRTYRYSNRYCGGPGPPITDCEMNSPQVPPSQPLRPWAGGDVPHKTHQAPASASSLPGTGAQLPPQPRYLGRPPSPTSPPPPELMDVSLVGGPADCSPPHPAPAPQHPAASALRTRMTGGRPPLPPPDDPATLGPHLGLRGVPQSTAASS
Sequence of Cyclin-dependent kinase 19 (Q9BWU1 whole entry): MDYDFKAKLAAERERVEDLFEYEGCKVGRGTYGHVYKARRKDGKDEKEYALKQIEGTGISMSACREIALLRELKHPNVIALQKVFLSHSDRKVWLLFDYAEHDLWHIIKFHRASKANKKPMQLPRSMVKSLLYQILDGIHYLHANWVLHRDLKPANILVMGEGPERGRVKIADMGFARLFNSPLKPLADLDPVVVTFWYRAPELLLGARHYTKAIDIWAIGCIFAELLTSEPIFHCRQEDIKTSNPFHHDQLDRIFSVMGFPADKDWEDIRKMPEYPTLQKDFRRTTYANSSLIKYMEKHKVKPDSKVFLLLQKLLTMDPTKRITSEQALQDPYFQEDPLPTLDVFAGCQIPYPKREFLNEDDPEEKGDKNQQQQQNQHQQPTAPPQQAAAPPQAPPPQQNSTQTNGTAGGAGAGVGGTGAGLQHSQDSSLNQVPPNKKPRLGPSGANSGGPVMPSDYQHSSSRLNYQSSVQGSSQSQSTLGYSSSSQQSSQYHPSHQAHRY
Sequence of Aurora kinase B (Q96GD4 whole entry): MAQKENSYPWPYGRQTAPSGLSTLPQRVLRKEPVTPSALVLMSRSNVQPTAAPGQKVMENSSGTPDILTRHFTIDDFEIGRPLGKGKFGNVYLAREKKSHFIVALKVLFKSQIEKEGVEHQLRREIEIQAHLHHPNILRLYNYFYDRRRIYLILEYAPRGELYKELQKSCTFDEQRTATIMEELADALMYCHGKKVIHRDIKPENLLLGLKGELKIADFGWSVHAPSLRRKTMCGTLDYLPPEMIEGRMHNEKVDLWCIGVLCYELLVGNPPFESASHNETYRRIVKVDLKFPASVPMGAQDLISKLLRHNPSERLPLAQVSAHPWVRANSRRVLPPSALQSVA

## c1cncc(CNc2ccnc(-c3ccc4cn[nH]c4c3)n2)c1
[1]
  AC50: 2.01 µM (active)

## COc1ccc(S(=O)(=O)Nc2cccc3c2O[C@@H](CN(C)S(=O)(=O)c2ccc(OC)cc2)[C@H](C)CN([C@@H](C)CO)C3=O)cc1
[2]
  AC50: 73.4 µM (active)

## O=C(c1cc(C2CC2)on1)N(CC1CCCCC1)C1CCCCC1
[3]
  EC50: > 50 µM (inactive)
[4]
  EC50: > 50 µM (inactive)

## O=c1[nH]ccc2cnc(-c3ccccc3)n12
[5]
  Ki: 79.4 µM (active)
[6]
  Ki: 39.8 µM (active)
[7]
  Ki: 25.1 µM (active)
[8]
  Ki: 63.1 µM (active)

## Sc1nnc(-c2cc(-c3ccccc3)[nH]n2)n1/N=C/c1ccc(Br)s1
[9]
  IC50: 6.99 µM (active)
[10]
  EC50: > 150 µM (not active)
[11]
  EC50: 14.6 µM (active)
[12]
  IC50: 14.5 µM (active)
[13]
  IC50: 32.9 µM (active)
[14]
  IC50: > 66.6 µM (inactive)
[15]
  IC50: 10.3 µM (active)
[16]
  EC50: > 150 µM (not active)
[17]
  IC50: 7.25 µM (active)
[18]
  IC50: > 100 µM (inactive)

## CCOC(=O)c1c(C)[nH]c(C(=O)N/N=C\c2ccccc2O)c1C
[19]
  IC50: 2.25 µM (active)
[20]
  EC50: > 120 µM (not active)
[21]
  EC50: 41.9 µM (active)
[22]
  EC50: 6.77 µM (active)
[23]
  IC50: 1.99 µM (active)
[24]
  AC50: 4.91 µM (active)
[25]
  EC50: 8.44 µM (active)
[26]
  AC50: 3.54 µM (active)
[27]
  AC50: 1.69 µM (active)
[28]
  AC50: 14.6 µM (active)
[29]
  EC50: > 120 µM (not active)

## Cc1oc2ncnc(N)c2c1-c1ccc(NC(=O)Nc2cccc(C(F)(F)F)c2)cc1
[30]
  Ki: 0.0794 µM (active)
[31]
  Ki: 3.98 µM (active)
[32]
  Ki: 0.0126 µM (active)

## Cc1ccc(C2(c3ccc(C)cc3)CC2C(=O)Nc2ccncc2)cc1 (stereo not given)
[33]
  Ki: > 10 µM (inactive)
[34]
  Ki: > 10 µM (inactive)
[35]
  Ki: 2.51 µM (active)
